System: HR+, HER2-negative locally advanced or metastatic breast cancer
Experiment: Study CBKM120F2302, randomized double-blind placebo-controlled Phase-III trial: buparlisib plus fulvestrant vs. placebo plus fulvestrant
Assay type: in vivo, human
Settings: Full population
From the text: For the Study, patients were selected according to the following inclusions and exclusion criteria:
Inclusion Criteria: • Locally advanced or metastatic breast cancer • HER2-negative and hormone receptor-positive status (common breast cancer classification tests) • Postmenopausal woman • A tumor sample must be shipped to a Novartis designated laboratory for identification of biomarkers (PI3K activation status) • Progression or recurrence of breast cancer while on or after aromatase inhibitor treatment • Measurable disease or non measurable disease bone lesions in the absence of measurable disease as per Response Evaluation Criteria in Solid Tumors 1.1 • Adequate bone marrow and organ function defined by laboratory values
Approximately 1200 patients were to be randomized in a 1:1 ratio. Enrollment was to continue until a minimum of 842 patients were randomized in the main cohort, including ≥334 patients with activated PI3K pathway status. […]
The PI3K pathway activation status was defined based on analysis of archival tumor samples as: • A mutation in the PIK3CA gene in one or more of exons 1, 7, 9, or 20 as assessed by Sanger sequencing, and/or • Loss of phosphotensin homolog (PTEN) expression (<10% of tumor cells expressing PTEN at 1+ level by immunohistochemistry [IHC] and no tumor cells staining with an intensity >1+) […]

Structure (SMILES): Nc1cc(C(F)(F)F)c(-c2cc(N3CCOCC3)nc(N3CCOCC3)n2)cn1 [buparlisib, 5-(2,6-di-morpholin-4-yl-pyrimidin-4-yl)-4-trifluoromethyl-pyridin-2-ylamine]
- Overall safety and tolerability profile: consistent with prior experience in single-arm and combination studies and with the class effects of PI3K inhibitors

From patent US20200138824A1, “TREATMENT OF CANCER WITH A PI3K INHIBITOR IN A PATIENT PRESELECTED FOR HAVING A PIK3CA MUTATION IN THE CTDNA” (Novartis AG, priority 2015, published 2020)
